Reference: patent US9695155B2, “Herbicidal substituted pyrimidinyloxy benzene compounds” (E. I. DU PONT DE NEMOURS AND COMPANY, priority 2013, dated 2017)

How the values were obtained:
oilseed rape = experiment: Test C postemergence; format: in vivo, Brassica napus
How it was run: (§1)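 Plants were kept under greenhouse conditions for 13–15 days following spray. Pre-emergent application went to soil (loam–sand), post-emergent to foliage at 1–4 leaves. Evaluation: visual, percent control against untreated checks.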

pigweed [1] = experiment: Test A preemergence; format: in vivo, Amaranthus retroflexus; conditions: 0 to 100 scale where 0 is no effect and 100 is complete control
How it was run: (§2)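 Compounds in non-phytotoxic solvent with surfactant applied as soil spray preemergence, or postemergence to plants 2-10 cm at one- to two-leaf stage, in loam/sand. After approximately 10 days in greenhouse, injury rated visually versus untreated controls, 0 (no effect) to 100 (complete control).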

large (Lg) crabgrass = experiment: Test C postemergence; format: in vivo, Digitaria sanguinalis
How it was run: as §1

Italian ryegrass = experiment: Test C preemergence; format: in vivo, Lolium multiflorum; conditions: preemergence
How it was run: as §1

pigweed [2] = experiment: Test A postemergence; format: in vivo, Amaranthus retroflexus; conditions: 0 to 100 scale where 0 is no effect and 100 is complete control
How it was run: as §2

soybean = experiment: Test C postemergence; format: in vivo, Glycine max
How it was run: as §1

giant foxtail = experiment: Test C postemergence; format: in vivo, Setaria faberii
How it was run: as §1

sedge, umbrella = experiment: Test B flooded paddy test; format: in vivo, Cyperus difformis; conditions: Flood, 250 g ai/ha, 0 to 100 scale where 0 is no effect and 100 is complete control
How it was run: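 Evaluation is visual, against untreated controls, 13 to 15 days after treatment. Before treatment, plants reached the 2-leaf stage; pots were then flooded 3 cm deep, compound was added to the water, and that level was maintained. Ratings run 0 to 100, with 100 meaning complete control.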

galium = experiment: Test C preemergence; format: in vivo, Galium aparine
How it was run: as §1

johnsongrass = experiment: Test C postemergence; format: in vivo, Sorghum halepense
How it was run: as §1

yellow nutsedge = experiment: Test C postemergence; format: in vivo, Cyperus esculentus
How it was run: as §1

wheat = experiment: Test A postemergence; format: in vivo, Triticum aestivum; conditions: 0 to 100 scale where 0 is no effect and 100 is complete control
How it was run: as §2

velvetleaf = experiment: Test C postemergence; format: in vivo, Abutilon theophrasti
How it was run: as §1

[3] = 16 g ai/ha, postemergence, 0 is no effect, 100 is complete control
[4] = 31 g ai/ha, postemergence, visual rating, scale 0 to 100 (0 no effect, 100 complete control), 13 to 15 days
[5] = 125 g ai/ha, postemergence, visual rating, scale 0 to 100 (0 no effect, 100 complete control)
[6] = Postemergence, 62 g ai/ha, scale 0 to 100 (0 no effect, 100 complete control)

Work on `FC(F)(F)COc1cnn(-c2ccccc2Oc2ncc(Cl)cn2)c1` [Compound 138, 5-chloro-2-[2-[4-(2,2,2-trifluoroethoxy)-1H-pyrazol-1-yl]phenoxy]pyrimidine] yielded a plant injury at 16 g/ha (oilseed rape; Brassica napus, post-emergence, 16 g ai/ha, postemergence, 0 is no effect, 100 is complete control, read-out: Plant response rating (0 to 100), Oilseed Rape) of 5%, a plant injury at 125 g/ha (oilseed rape; Brassica napus, post-emergence, 125 g ai/ha, postemergence, visual rating, scale 0 to 100 (0 no effect, 100 complete control), read-out: Plant response rating, Oilseed Rape) of 80% and a plant injury at 62 g/ha (oilseed rape; Brassica napus, post-emergence, Postemergence, 62 g ai/ha, scale 0 to 100 (0 no effect, 100 complete control), read-out: Plant response rating, Oilseed Rape) of 60%. The pest or weed control at 125 g/ha (pigweed [1]; Amaranthus retroflexus, pre-emergence, 125 g ai/ha, read-out: Plant response rating, Pigweed) was 90%, the pest or weed control at 500 g/ha (pigweed [1]; Amaranthus retroflexus, pre-emergence, 240 h, 500 g ai/ha, read-out: Pigweed plant response rating) was 100% and the pest or weed control at 16 g/ha (large (Lg) crabgrass; Digitaria sanguinalis, post-emergence, 16 g ai/ha, postemergence, 0 is no effect, 100 is complete control, read-out: Plant response rating (0 to 100), Crabgrass, Large) was 10%. It also gave a pest or weed control at 125 g/ha (large (Lg) crabgrass; Digitaria sanguinalis, post-emergence, 125 g ai/ha, postemergence, visual rating, scale 0 to 100 (0 no effect, 100 complete control), read-out: Plant response rating, Crabgrass, Large) of 15%, a pest or weed control at 62 g/ha (large (Lg) crabgrass; Digitaria sanguinalis, post-emergence, Postemergence, 62 g ai/ha, scale 0 to 100 (0 no effect, 100 complete control), read-out: Plant response rating, Crabgrass, Large) of 15% and a pest or weed control at 16 g/ha (Italian ryegrass; Lolium multiflorum, pre-emergence, 16 g ai/ha, scale 0 to 100 (0 no effect, 100 complete control), read-out: Ryegrass, Italian plant response rating) of 0%. The pest or weed control at 62 g/ha (Italian ryegrass; Lolium multiflorum, pre-emergence, 62 g ai/ha, scale 0 (no effect) to 100 (complete control), read-out: Ryegrass, Italian plant response rating) was 20%, the pest or weed control at 125 g/ha (Italian ryegrass; Lolium multiflorum, pre-emergence, 125 g ai/ha, scale 0 (no effect) to 100 (complete control), read-out: Ryegrass, Italian plant response rating) was 60% and the pest or weed control at 500 g/ha (pigweed [2]; Amaranthus retroflexus, post-emergence, 500 g ai/ha, read-out: Plant response rating, Pigweed) was 100%. It also gave a pest or weed control at 125 g/ha (pigweed [2]; Amaranthus retroflexus, post-emergence, 240 h, 125 g ai/ha, read-out: Pigweed plant response rating) of 100%, a Soybean plant response rating (crop injury, 0-100 scale) at 16 g/ha (soybean; Glycine max, post-emergence, 16 g ai/ha, postemergence, 0 is no effect, 100 is complete control) of 40% and a Soybean plant response rating (crop injury, 0-100 scale) at 125 g/ha (soybean; Glycine max, post-emergence, 125 g ai/ha, postemergence, visual rating, scale 0 to 100 (0 no effect, 100 complete control), read-out: Plant response rating, Soybean) of 95%. It also gave a Soybean plant response rating (crop injury, 0-100 scale) at 62 g/ha (soybean; Glycine max, post-emergence, Postemergence, 62 g ai/ha, scale 0 to 100 (0 no effect, 100 complete control)) of 65%, a pest or weed control at 16 g/ha (giant foxtail; Setaria faberi, post-emergence, 16 g ai/ha, postemergence, 0 is no effect, 100 is complete control, read-out: Plant response rating (0 to 100), Foxtail, Giant) of 5% and a pest or weed control at 125 g/ha (giant foxtail; Setaria faberi, post-emergence, 125 g ai/ha, postemergence, visual rating, scale 0 to 100 (0 no effect, 100 complete control), read-out: Plant response rating, Foxtail, Giant) of 50%. The pest or weed control at 62 g/ha (giant foxtail; Setaria faberi, post-emergence, Postemergence, 62 g ai/ha, scale 0 to 100 (0 no effect, 100 complete control), read-out: Plant response rating, Foxtail, Giant) was 10%, the pest or weed control at 250 g/ha (sedge, umbrella; Cyperus difformis, read-out: Plant response rating, Sedge, Umbrella) was 75% and the pest or weed control at 16 g/ha (galium; Galium, pre-emergence, 16 g ai/ha, preemergence, scale 0 to 100 (0 no effect, 100 complete control), read-out: Galium plant response rating) was 90%. The pest or weed control at 62 g/ha (galium; Galium, pre-emergence, 62 g ai/ha, preemergence, scale 0 (no effect) to 100 (complete control), read-out: Galium plant response rating) was 90%, the pest or weed control at 125 g/ha (galium; Galium, pre-emergence, 125 g ai/ha, preemergence, scale 0 (no effect) to 100 (complete control), read-out: Galium plant response rating) was 100% and the pest or weed control at 31 g/ha (galium; Galium, pre-emergence, Preemergence, 31 g ai/ha, scale 0 to 100, 0 no effect, 100 complete control, read-out: Plant response rating, Galium) was 90%. For the same molecule, the pest or weed control at 16 g/ha (johnsongrass; Sorghum halepense, post-emergence, 16 g ai/ha, postemergence, 0 is no effect, 100 is complete control, read-out: Plant response rating (0 to 100), Johnsongrass) was 5%, the pest or weed control at 125 g/ha (johnsongrass; Sorghum halepense, post-emergence, 125 g ai/ha, postemergence, visual rating, scale 0 to 100 (0 no effect, 100 complete control), read-out: Plant response rating, Johnsongrass) was 10% and the pest or weed control at 62 g/ha (johnsongrass; Sorghum halepense, post-emergence, Postemergence, 62 g ai/ha, scale 0 to 100 (0 no effect, 100 complete control), read-out: Plant response rating, Johnsongrass) was 5%. For the same molecule, the pest or weed control at 16 g/ha (yellow nutsedge; Cyperus, post-emergence, 16 g ai/ha, postemergence, 0 is no effect, 100 is complete control, read-out: Plant response rating (0 to 100), Nutsedge, Yellow) was 0%, the pest or weed control at 125 g/ha (yellow nutsedge; Cyperus, post-emergence, 125 g ai/ha, postemergence, visual rating, scale 0 to 100 (0 no effect, 100 complete control), read-out: Plant response rating, Nutsedge, Yellow) was 10% and the pest or weed control at 62 g/ha (yellow nutsedge; Cyperus, post-emergence, Postemergence, 62 g ai/ha, scale 0 to 100 (0 no effect, 100 complete control), read-out: Plant response rating, Nutsedge, Yellow) was 5%. It also gave a plant injury at 125 g/ha (wheat; Triticum aestivum, post-emergence, 240 h, 125 g ai/ha, read-out: Wheat plant response rating) of 50%, a plant injury at 500 g/ha (wheat; Triticum aestivum, post-emergence, 240 h, 500 g ai/ha, read-out: Plant response rating, Wheat) of 90% and a pest or weed control at 16 g/ha (velvetleaf; Abutilon theophrasti, post-emergence, 16 g ai/ha, postemergence, 0 is no effect, 100 is complete control, read-out: Plant response rating (0 to 100), Velvetleaf) of 30%. For the same molecule, the pest or weed control at 125 g/ha (velvetleaf; Abutilon theophrasti, post-emergence, 125 g ai/ha, postemergence, visual rating, scale 0 to 100 (0 no effect, 100 complete control), read-out: Plant response rating, Velvetleaf) was 55% and the pest or weed control at 62 g/ha (velvetleaf; Abutilon theophrasti, post-emergence, Postemergence, 62 g ai/ha, scale 0 to 100 (0 no effect, 100 complete control), read-out: Plant response rating, Velvetleaf) was 20%.
For `CCCOc1cnn(-c2c(C#N)cccc2Oc2ncc(Cl)cn2)c1` [Compound 150], the “Plant response rating (0 to 100), Oilseed Rape” value (oilseed rape; [3]) was 5, the “Oilseed Rape plant response rating” value (oilseed rape; [4]) was 40 and the “Plant response rating, Oilseed Rape” value (oilseed rape; [5]) was 50. For the same molecule, the “Plant response rating, Oilseed Rape” value (oilseed rape; [6]) was 45, the “Plant response rating, Pigweed” value (pigweed [1]; 125 g ai/ha) was 100 and the “Pigweed plant response rating” value (pigweed [1]; 500 g ai/ha) was 100. For the same molecule, the “Plant response rating (0 to 100), Crabgrass, Large” value (large (Lg) crabgrass; [3]) was 5, the “Crabgrass, Large plant response rating” value (large (Lg) crabgrass; [4]) was 5 and the “Plant response rating, Crabgrass, Large” value (large (Lg) crabgrass; [5]) was 10. The “Plant response rating, Crabgrass, Large” value (large (Lg) crabgrass; [6]) was 5, the “Ryegrass, Italian plant response rating” value (Italian ryegrass; 16 g ai/ha, scale 0 to 100 (0 no effect, 100 complete control)) was 0 and the “Ryegrass, Italian plant response rating” value (Italian ryegrass; 62 g ai/ha, scale 0 (no effect) to 100 (complete control)) was 30. For the same molecule, the “Ryegrass, Italian plant response rating” value (Italian ryegrass; 125 g ai/ha, scale 0 (no effect) to 100 (complete control)) was 50, the “Pigweed plant response rating” value (pigweed [2]; 125 g ai/ha) was 100 and the “Plant response rating, Pigweed” value (pigweed [2]; 500 g ai/ha) was 100. For the same molecule, the “Plant response rating (0 to 100), Soybean” value (soybean; [3]) was 65, the “Soybean plant response rating” value (soybean; [4]) was 65 and the “Plant response rating, Soybean” value (soybean; [5]) was 95. The “Plant response rating, Soybean” value (soybean; [6]) was 65, the “Plant response rating (0 to 100), Foxtail, Giant” value (giant foxtail; [3]) was 5 and the “Foxtail, Giant plant response rating” value (giant foxtail; [4]) was 20. The “Plant response rating, Foxtail, Giant” value (giant foxtail; [5]) was 25, the “Plant response rating, Foxtail, Giant” value (giant foxtail; [6]) was 20 and the “Plant response rating, Sedge, Umbrella” value (sedge, umbrella) was 85. For the same molecule, the “Galium plant response rating” value (galium; 16 g ai/ha, preemergence, scale 0 to 100 (0 no effect, 100 complete control)) was 0, the “Galium plant response rating” value (galium; 62 g ai/ha, preemergence, scale 0 (no effect) to 100 (complete control)) was 90 and the “Galium plant response rating” value (galium; 125 g ai/ha, preemergence, scale 0 (no effect) to 100 (complete control)) was 100. For the same molecule, the “Plant response rating, Galium” value (galium; Preemergence, 31 g ai/ha, scale 0 to 100, 0 no effect, 100 complete control) was 80, the “Plant response rating (0 to 100), Johnsongrass” value (johnsongrass; [3]) was 0 and the “Johnsongrass plant response rating” value (johnsongrass; [4]) was 0. For the same molecule, the “Plant response rating, Johnsongrass” value (johnsongrass; [5]) was 5, the “Plant response rating, Johnsongrass” value (johnsongrass; [6]) was 5 and the “Plant response rating (0 to 100), Nutsedge, Yellow” value (yellow nutsedge; [3]) was 0. The “Nutsedge, Yellow plant response rating” value (yellow nutsedge; [4]) was 0, the “Plant response rating, Nutsedge, Yellow” value (yellow nutsedge; [5]) was 5 and the “Plant response rating, Nutsedge, Yellow” value (yellow nutsedge; [6]) was 15. For the same molecule, the “Wheat plant response rating” value (wheat; 125 g ai/ha) was 30, the “Plant response rating, Wheat” value (wheat; 500 g ai/ha) was 90 and the “Plant response rating (0 to 100), Velvetleaf” value (velvetleaf; [3]) was 20. The “Velvetleaf plant response rating” value (velvetleaf; [4]) was 25, the “Plant response rating, Velvetleaf” value (velvetleaf; [5]) was 30 and the “Plant response rating, Velvetleaf” value (velvetleaf; [6]) was 30.
